From patent publication US12139492B2 (Endotarget Inc., priority 2021, dated 2024) come the findings set out here.

In one experiment the test system is JeKo-1 cells. Nature of the experiment: Antiproliferative effect, MTS cell viability assay, JeKo-1 cells. The format is cell-based. As to conditions: Homo sapiens; JeKo-1 mantle cell lymphoma cells; read-out: IC50 (anti-proliferation) JeKO-1 cells. In short, it runs like this: (§1)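 MTS read-out, A490 of formazan from metabolically active cells; compound 0–10 μM (0, 0.001, 0.01, 0.1, 1, 10 μM), 72 h exposure.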
A general note: Formazan colour is commonly taken as a measure of viable cells.

The target of the next experiment is BTK (Homo sapiens, UniProt Q06187). Description: Degradation of BTK protein in Namalwa cells (Western blot; DC50, Dmax). The following applies: for DC50: BTK degradation, cell line not given. On the technique in general: In western blotting, separated proteins are transferred to a membrane and probed.
The next experiment relates to Mino cells. Description: Antiproliferative effect, MTS cell viability assay, Mino cells. The format is cell-based. As to conditions: Homo sapiens, MINO, Mino mantle cell lymphoma cells; read-out: IC50 (anti-proliferation) Mino cells. In short, it runs like this: as §1

BTK, sequence (Q06187 whole entry): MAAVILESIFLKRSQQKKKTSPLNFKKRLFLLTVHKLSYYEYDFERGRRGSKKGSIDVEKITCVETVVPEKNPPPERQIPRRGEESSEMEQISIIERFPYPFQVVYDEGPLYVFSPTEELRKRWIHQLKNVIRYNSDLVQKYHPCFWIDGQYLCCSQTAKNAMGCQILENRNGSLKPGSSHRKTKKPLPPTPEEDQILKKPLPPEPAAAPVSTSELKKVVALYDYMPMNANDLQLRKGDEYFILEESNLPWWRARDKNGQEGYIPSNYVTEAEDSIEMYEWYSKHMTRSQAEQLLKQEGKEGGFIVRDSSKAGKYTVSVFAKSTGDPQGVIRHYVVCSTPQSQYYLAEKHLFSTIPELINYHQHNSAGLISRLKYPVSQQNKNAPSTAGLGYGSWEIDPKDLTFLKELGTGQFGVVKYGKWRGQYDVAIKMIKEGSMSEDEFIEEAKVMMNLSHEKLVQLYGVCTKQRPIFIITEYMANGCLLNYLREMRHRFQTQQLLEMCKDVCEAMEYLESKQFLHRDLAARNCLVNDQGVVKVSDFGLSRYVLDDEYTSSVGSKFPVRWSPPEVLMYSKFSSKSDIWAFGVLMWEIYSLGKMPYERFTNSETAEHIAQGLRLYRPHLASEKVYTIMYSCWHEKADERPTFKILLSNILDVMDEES

Take `NC(=O)c1c(-c2ccc(Oc3ccccc3)cc2)nn2c1NCCC2C1CCN(CC2CCN(C(=O)N3CCN(CC4CCN(c5ccc6c(c5)C(=O)N(C5CCC(=O)NC5=O)C6=O)CC4)CC3)CC2)CC1` (centres unmarked) [Compound 371]: the IC50 in the experiment with JeKo-1 cells was less than 1 µM. Besides, on BTK, the Dmax was more than 90% and the DC50 was in the range of 10 to 50 nM. The IC50 in the experiment with Mino cells is less than 1000 nM.

As to `NC(=O)c1c(-c2ccc(Oc3ccccc3)cc2)nn2c1NCCC2C1CCN(CC2CCN(C(=O)N3CCN(CC4CCN(c5ccc6c(c5)CN(C5CCC(=O)NC5=O)C6=O)CC4)CC3)CC2)CC1` (centres unmarked) [Compound 372, 7-(1-((1-(4-((1-(2-(2,6-dioxopiperidin-3-yl)-1-oxoisoindolin-5-yl)piperidin-4-yl)methyl)piperazine-1-carbonyl)piperidin-4-yl)methyl)piperidin-4-yl)-2-(4-phenoxyphenyl)-4,5,6,7-tetrahydropyrazolo[1,5-a]pyrimidine-3-carboxamide], the IC50 with JeKo-1 cells is less than 1 µM; in the experiment with Mino cells, 1000 to 10000 nM. The Dmax at BTK was more than 90%. The molecule further registered a DC50 at BTK of 10 to 50 nM.

Turning to `NC(=O)c1c(-c2ccc(Oc3ccccc3)cc2)nn2c1NCCC2C1CCN(CC2CCN(C(=O)N3CCC(CC4CCN(c5ccc6c(c5)C(=O)N(C5CCC(=O)NC5=O)C6=O)CC4)CC3)CC2)CC1` (centres unmarked) [Compound 373, 7-(1-((1-(4-((1-(2-(2,6-dioxopiperidin-3-yl)-1,3-dioxoisoindolin-5-yl)piperidin-4-yl)methyl)piperidine-1-carbonyl)piperidin-4-yl)methyl)piperidin-4-yl)-2-(4-phenoxyphenyl)-4,5,6,7-tetrahydropyrazolo[1,5-a]pyrimidine-3-carboxamide], the IC50 in the experiment with JeKo-1 cells is more than 10 µM. In addition, on BTK, the Dmax is more than 75% and the DC50 is 10 to 50 nM. The IC50 in the experiment with Mino cells lay within 1000 to 10000 nM.

`NC(=O)c1c(-c2ccc(Oc3ccccc3)cc2)nn2c1NCCC2C1CCN(CC2CCN(C(=O)N3CCC(CC4CCN(c5ccc6c(c5)CN(C5CCC(=O)NC5=O)C6=O)CC4)CC3)CC2)CC1` (centres unmarked) [Compound 374, 7-(1-((1-(4-((1-(2-(2,6-dioxopiperidin-3-yl)-1-oxoisoindolin-5-yl)piperidin-4-yl)methyl)piperidine-1-carbonyl)piperidin-4-yl)methyl)piperidin-4-yl)-2-(4-phenoxyphenyl)-4,5,6,7-tetrahydropyrazolo[1,5-a]pyrimidine-3-carboxamide]: the IC50 with JeKo-1 cells is more than 10 µM; in the experiment with Mino cells, 1000 to 10000 nM. This molecule had a Dmax on BTK of more than 75%. Besides, the DC50 at BTK was in the range of 10 to 50 nM.

On to `NC(=O)c1c(-c2ccc(Oc3ccccc3)cc2)nn2c1NCCC2C1CCN(CC2CCN(C(=O)N3CCC(CN4CCC(c5ccc6c(c5)C(=O)N(C5CCC(=O)NC5=O)C6=O)CC4)CC3)CC2)CC1` (centres unmarked) [Compound 375, 7-(1-((1-(4-((4-(2-(2,6-dioxopiperidin-3-yl)-1,3-dioxoisoindolin-5-yl)piperidin-1-yl)methyl)piperidine-1-carbonyl)piperidin-4-yl)methyl)piperidin-4-yl)-2-(4-phenoxyphenyl)-4,5,6,7-tetrahydropyrazolo[1,5-a]pyrimidine-3-carboxamide], for which the IC50 in the experiment on JeKo-1 cells is 1 to 10 µM. On BTK, this molecule yielded a Dmax of more than 75% and a DC50 of 10 to 50 nM. The IC50 in the experiment on Mino cells was 1000 to 10000 nM.

Regarding `NC(=O)c1c(-c2ccc(Oc3ccccc3)cc2)nn2c1NCCC2C1CCN(CC2CCN(C(=O)N3CCC(CN4CCC(c5ccc6c(c5)CN(C5CCC(=O)NC5=O)C6=O)CC4)CC3)CC2)CC1` (centres unmarked) [Compound 376, 7-(1-((1-(4-((4-(2-(2,6-dioxopiperidin-3-yl)-1-oxoisoindolin-5-yl)piperidin-1-yl)methyl)piperidine-1-carbonyl)piperidin-4-yl)methyl)piperidin-4-yl)-2-(4-phenoxyphenyl)-4,5,6,7-tetrahydropyrazolo[1,5-a]pyrimidine-3-carboxamide], the IC50 with JeKo-1 cells fell in the range of 1 to 10 µM. For the same molecule, at BTK, the Dmax is more than 75% and the DC50 was 10 to 50 nM. Also, the IC50 in the experiment with Mino cells was 1000 to 10000 nM.

Consider `NC(=O)c1c(-c2ccc(Oc3ccccc3)cc2)nn2c1NCC[C@H]2C1CCN(C2CCN(C(=O)N3CCN(c4ccc5c(c4)CN(C4CCC(=O)NC4=O)C5=O)CC3)CC2)CC1` (stereo partly drawn) [Compound 378, (7S)-7-(1′-(4-(2-(2,6-dioxopiperidin-3-yl)-1-oxoisoindolin-5-yl)piperazine-1-carbonyl)-[1,4′-bipiperidin]-4-yl)-2-(4-phenoxyphenyl)-4,5,6,7-tetrahydropyrazolo[1,5-a]pyrimidine-3-carboxamide], for which the IC50 in the experiment with JeKo-1 cells was more than 10 µM. On BTK, the Dmax is more than 50% and the DC50 is more than 50 nM. For the same molecule, the IC50 in the experiment with Mino cells is more than 10000 nM.

Turning to `NC(=O)c1c(-c2ccc(Oc3ccccc3)cc2)nn2c1NCC[C@H]2C1CCN(C2CCN(C(=O)N3CCN(Cc4ccc5c(c4)C(=O)N(C4CCC(=O)NC4=O)C5=O)CC3)CC2)CC1` (stereo partly drawn) [Compound 379, (7S)-7-(1′-(4-((2-(2,6-dioxopiperidin-3-yl)-1,3-dioxoisoindolin-5-yl)methyl)piperazine-1-carbonyl)-[1,4′-bipiperidin]-4-yl)-2-(4-phenoxyphenyl)-4,5,6,7-tetrahydropyrazolo[1,5-a]pyrimidine-3-carboxamide], the IC50 in the experiment on JeKo-1 cells is more than 10 µM; in the experiment with Mino cells, more than 10000 nM. Besides, on BTK, the Dmax was more than 75%. For the same molecule, the DC50 at BTK was more than 50 nM.

`NC(=O)c1c(-c2ccc(Oc3ccccc3)cc2)nn2c1NCC[C@H]2C1CCN(C2CCN(C(=O)N3CCN(Cc4ccc5c(c4)CN(C4CCC(=O)NC4=O)C5=O)CC3)CC2)CC1` (stereo partly drawn) [Compound 380, (7S)-7-(1′-(4-((2-(2,6-dioxopiperidin-3-yl)-1-oxoisoindolin-5-yl)methyl)piperazine-1-carbonyl)-[1,4′-bipiperidin]-4-yl)-2-(4-phenoxyphenyl)-4,5,6,7-tetrahydropyrazolo[1,5-a]pyrimidine-3-carboxamide]: in the experiment with JeKo-1 cells, the IC50 was more than 10 µM. At BTK, the Dmax was more than 75% and the DC50 was more than 50 nM. Further, the IC50 in the experiment on Mino cells lay within 1000 to 10000 nM.

For `NC(=O)c1c(-c2ccc(Oc3ccccc3)cc2)nn2c1NCC[C@H]2C1CCN(C2CCN(C(=O)N3CCC(N4CCN(c5ccc6c(c5)C(=O)N(C5CCC(=O)NC5=O)C6=O)CC4)CC3)CC2)CC1` (stereo partly drawn) [Compound 381, (7S)-7-(1′-(4-(4-(2-(2,6-dioxopiperidin-3-yl)-1,3-dioxoisoindolin-5-yl)piperazin-1-yl)piperidine-1-carbonyl)-[1,4′-bipiperidin]-4-yl)-2-(4-phenoxyphenyl)-4,5,6,7-tetrahydropyrazolo[1,5-a]pyrimidine-3-carboxamide], the values for the IC50 in the experiment with JeKo-1 cells and in the experiment with Mino cells were less than 1 µM and less than 1000 nM, respectively. Besides, the Dmax on BTK was more than 90%. Also, at BTK, the DC50 is less than 10 nM.

For `NC(=O)c1c(-c2ccc(Oc3ccccc3)cc2)nn2c1NCC[C@H]2C1CCN(C2CCN(C(=O)N3CCC(N4CCN(c5ccc6c(c5)CN(C5CCC(=O)NC5=O)C6=O)CC4)CC3)CC2)CC1` (stereo partly drawn) [Compound 382, (7S)-7-(1′-(4-(4-(2-(2,6-dioxopiperidin-3-yl)-1-oxoisoindolin-5-yl)piperazin-1-yl)piperidine-1-carbonyl)-[1,4′-bipiperidin]-4-yl)-2-(4-phenoxyphenyl)-4,5,6,7-tetrahydropyrazolo[1,5-a]pyrimidine-3-carboxamide], the IC50 in the experiment with JeKo-1 cells was less than 1 µM. Moreover, on BTK, the Dmax was more than 90% and the 50% degradation concentration (DC50) is less than 10 nM. The IC50 with Mino cells is less than 1000 nM.

For the molecule `NC(=O)c1c(-c2ccc(Oc3ccccc3)cc2)nn2c1NCC[C@H]2C1CCN(C2CCN(C(=O)N3CCC(C4CCN(c5ccc6c(c5)C(=O)N(C5CCC(=O)NC5=O)C6=O)CC4)CC3)CC2)CC1` (stereo partly drawn) [Compound 383, (7S)-7-(1′-(1′-(2-(2,6-dioxopiperidin-3-yl)-1,3-dioxoisoindolin-5-yl)-[4,4′-bipiperidine]-1-carbonyl)-[1,4′-bipiperidin]-4-yl)-2-(4-phenoxyphenyl)-4,5,6,7-tetrahydropyrazolo[1,5-a]pyrimidine-3-carboxamide], the figures for the IC50 in the experiment with JeKo-1 cells and in the experiment on Mino cells were less than 1 µM and less than 1000 nM, respectively. Also, the Dmax at BTK was more than 90%. This molecule also showed a DC50 on BTK of 10 to 50 nM.

For the molecule `NC(=O)c1c(-c2ccc(Oc3ccccc3)cc2)nn2c1NCC[C@H]2C1CCN(C2CCN(C(=O)N3CCC(C4CCN(c5ccc6c(c5)CN(C5CCC(=O)NC5=O)C6=O)CC4)CC3)CC2)CC1` (stereo partly drawn) [Compound 384, (7S)-7-(1′-(1′-(2-(2,6-dioxopiperidin-3-yl)-1-oxoisoindolin-5-yl)-[4,4′-bipiperidine]-1-carbonyl)-[1,4′-bipiperidin]-4-yl)-2-(4-phenoxyphenyl)-4,5,6,7-tetrahydropyrazolo[1,5-a]pyrimidine-3-carboxamide], in the experiment with JeKo-1 cells, the IC50 was 1 to 10 µM. Moreover, on BTK, the Dmax is more than 90% and the half-maximal degradation concentration (DC50) is less than 10 nM. The IC50 with Mino cells is less than 1000 nM.

Take `NC(=O)c1c(-c2ccc(Oc3ccccc3)cc2)nn2c1NCC[C@H]2C1CCN(C2CCN(C(=O)N3CCN(C4CCN(c5ccc6c(c5)C(=O)N(C5CCC(=O)NC5=O)C6=O)CC4)CC3)CC2)CC1` (stereo partly drawn) [Compound 385, (7S)-7-(1′-(4-(1-(2-(2,6-dioxopiperidin-3-yl)-1,3-dioxoisoindolin-5-yl)piperidin-4-yl)piperazine-1-carbonyl)-[1,4′-bipiperidin]-4-yl)-2-(4-phenoxyphenyl)-4,5,6,7-tetrahydropyrazolo[1,5-a]pyrimidine-3-carboxamide]: in the experiment with JeKo-1 cells, the IC50 fell in the range of 1 to 10 µM. At BTK, this molecule yielded a Dmax of more than 90% and a DC50 of less than 10 nM. For the same molecule, in the experiment with Mino cells, the IC50 is less than 1000 nM.

For orientation: Dmax means the largest share of the target that was removed. A low value points to a partial loss of target. For orientation: DC50 means the midpoint of the concentration-degradation curve. A higher DC50 goes with degradation only at high concentration.
